The results in this text go back to patent US10316017B2, “COT modulators and methods of use thereof” (Gilead Sciences, Inc., priority 2015, dated 2019).

The structures appear in SMILES notation.

Experiment [1] concerns the target T1, human Cot catalytic domain (30-397 amino acids) (Homo sapiens, UniProt P41279).
T1 construct: Purified recombinant human Cot catalytic domain (30-397 amino acids) was purchased from Cama Biosciences; purchased Cama Biosciences (so in the source)
Nature of the experiment: High Throughput Cot Biochemical Assay (KinEASE TR-FRET). The settings on record: Cot biochemical HTRF (KinEASE TR-FRET) assay; read-out: IC50 HTRF. The procedure, abridged: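 Phosphorylation of 1 μM XL665-STK3 peptide by 5 nM Cot catalytic domain was measured by time-resolved FRET using a europium […] antibody. ATP was 400 μM; buffer was 10 mM MOPS pH 7.0 with Mg2+ and DTT.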
On the technique in general: TR-FRET usually uses a lanthanide donor and a delayed reading to cut background.

For experiment [2], the system named is TNFα production in LPS-stimulated human monocytes. As to the kind of experiment: Cot Monocyte TNFα Cell Based Assay. The settings on record: Homo sapiens, Monocyte, TNFα in LPS-stimulated human monocytes; read-out: EC50 TNF. The procedure, abridged:
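Percent-of-control values derive from TR-FRET ratios of TNFα in spun-down media, referenced to unstimulated and LPS-stimulated wells. Exposure: 1 h compound preincubation, then 50 pg/ml LPS for 4 h, both at 37 °C, with 0.5% final DMSO.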

Usually IC50 stands for the concentration needed to halve the response being measured. The EC50 is the concentration needed to bring the measured effect to its halfway point.

T1 sequence (P41279 30-397): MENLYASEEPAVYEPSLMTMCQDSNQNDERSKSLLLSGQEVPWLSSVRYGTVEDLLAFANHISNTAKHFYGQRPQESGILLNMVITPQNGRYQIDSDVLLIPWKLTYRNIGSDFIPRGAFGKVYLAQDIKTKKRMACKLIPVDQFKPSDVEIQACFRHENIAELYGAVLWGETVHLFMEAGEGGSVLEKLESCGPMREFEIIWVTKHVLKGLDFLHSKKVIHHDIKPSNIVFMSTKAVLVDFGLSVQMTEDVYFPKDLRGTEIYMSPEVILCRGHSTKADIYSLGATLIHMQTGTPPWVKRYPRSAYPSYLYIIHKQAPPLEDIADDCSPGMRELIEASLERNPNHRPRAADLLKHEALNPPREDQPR

Consider `CC(C)n1cc([C@@H](Nc2cc(Cl)c3ncc(C#N)c(Nc4cccc(Cl)c4F)c3c2)c2cccc(C(=O)N(C)C)c2)nn1` [Example 607, (S)-3-(((8-chloro-4-((3-chloro-2-fluorophenyl)amino)-3-cyanoquinolin-6-yl)amino)(1-isopropyl-1H-1,2,3-triazol-4-yl)methyl)-N,N-dimethylbenzamide], for which the IC50 in experiment [1] is 2 nM. Also, the 50% effective concentration (EC50) in experiment [2] came to 198 nM.
With `CN(C)C(=O)c1cccc([C@H](Nc2cc(Cl)c3ncc(C#N)c(Nc4cccc(Cl)c4F)c3c2)c2cn(C3CCN(C(C)(C)C)CC3)nn2)c1` [Example 608, (S)-3-((1-(1-(tert-butyl)piperidin-4-yl)-1H-1,2,3-triazol-4-yl)((8-chloro-4-((3-chloro-2-fluorophenyl)amino)-3-cyanoquinolin-6-yl)amino)methyl)-N,N-dimethylbenzamide], the IC50 in experiment [1] came to 1 nM. In addition, the EC50 in experiment [2] came to 41 nM.
For `N#Cc1cnc2c(Cl)cc(N[C@@H](c3ccccc3)c3cn(C4CC4)nn3)cc2c1Nc1ccc(F)c(Cl)c1` [Example 609, (S)-8-chloro-4-((3-chloro-4-fluorophenyl)amino)-6-(((1-cyclopropyl-1H-1,2,3-triazol-4-yl)(phenyl)methyl)amino) quinoline-3-carbonitrile] the same measures were 7 nM and 384 nM.
The corresponding values for `CC(C)(O)Cn1cc([C@@H](Nc2cc(Cl)c3ncc(C#N)c(Nc4ccc(F)c(Cl)c4)c3c2)c2ccccc2)nn1` [Example 610, (S)-8-chloro-4-((3-chloro-4-fluorophenyl)amino)-6-(((1-(2-hydroxy-2-methylpropyl)-1H-1,2,3-triazol-4-yl)(phenyl)methyl)amino) quinoline-3-carbonitrile] are 14 nM and 337 nM.
As to `CC(C)(C)N1CCC(n2cc([C@@H](Nc3cc(Cl)c4ncc(C#N)c(Nc5ccsc5Cl)c4c3)c3ccccc3)nn2)CC1` [Example 611, (S)-6-(((1-(1-(tert-butyl)piperidin-4-yl)-1H-1,2,3-triazol-4-yl)(phenyl)methyl)amino)-8-chloro-4-((2-chlorothiophen-3-yl)amino)quinoline-3-carbonitrile], the half-maximal inhibitory concentration (IC50) in experiment [1] stood at 51 nM. In experiment [2], the EC50 came out at 369 nM.
The corresponding values for `CC(C)(C)N1CCC(n2cc([C@@H](Nc3cc(Cl)c4ncc(C#N)c(Nc5cscc5Cl)c4c3)c3ccccc3)nn2)CC1` [Example 612, (S)-6-(((1-(1-(tert-butyl)piperidin-4-yl)-1H-1,2,3-triazol-4-yl)(phenyl)methyl)amino)-8-chloro-4-((4-chlorothiophen-3-yl)amino)quinoline-3-carbonitrile] are 84 nM and 2020 nM.
The corresponding values for `N#Cc1cnc2c(Cl)cc(N[C@@H](c3ccccc3)c3c[nH]nn3)cc2c1Nc1cccc(Cl)c1F` [Example 613, (S)-8-chloro-4-((3-chloro-2-fluorophenyl)amino)-6-((phenyl(1H-1,2,3-triazol-4-yl)methyl)amino)quinoline-3-carbonitrile] are 41 nM and 708 nM.
For `N#Cc1cnc2c(Cl)cc(N[C@@H](c3ccc(Cl)cc3)c3c[nH]nn3)cc2c1Nc1ccc(O)c(Cl)c1` [Example 614, (S)-8-chloro-4-((3-chloro-4-hydroxyphenyl)amino)-6-(((4-chlorophenyl)(1H-1,2,3-triazol-4-yl)methyl)amino)quinoline-3-carbonitrile] the same measures were 123 nM and 1110 nM.
On to `CC1(Nc2c(C#N)cnc3c(Cl)cc(N[C@@H](c4ccccc4)c4cn(C5CCN(C(C)(C)C)CC5)nn4)cc23)CCCCCC1` [Example 615, (S)-6-(((1-(1-(tert-butyl)piperidin-4-yl)-1H-1,2,3-4-yl)(phenyl)methyl)amino)-8-chloro-4-((1-methylcycloheptyl)amino) quinoline-3-carbonitrile], for which the IC50 in experiment [1] came to 141 nM. The concentration giving a half-maximal response (EC50) in experiment [2] was determined as 719 nM.
The corresponding values for `CC(C)(C)N1CCC(n2cc([C@@H](Nc3cc(Cl)c4ncc(C#N)c(NCc5ccccc5Cl)c4c3)c3ccccc3)nn2)CC1` [Example 616, (S)-6-(((1-(1-(tert-butyl)piperidin-4-yl)-1H-1,2,3-triazol-4-yl)(phenyl)methyl)amino)-8-chloro-4-((2-chlorobenzyl)amino)quinoline-3-carbonitrile] are 40 nM and 2180 nM.
Turning to `CC(C)(C)N1CCC(n2cc([C@@H](Nc3cc(Cl)c4ncc(C#N)c(NCc5cccc(F)c5F)c4c3)c3ccccc3)nn2)CC1` [Example 617, (S)-6-(((1-(1-(tert-butyl)piperidin-4-yl)-1H-1,2,3-triazol-4-yl)(phenyl)methyl)amino)-8-chloro-4-((2,3-difluorobenzyl)amino)quinoline-3-carbonitrile], in experiment [1], the IC50 is 43 nM. The EC50 in experiment [2] stood at 12300 nM.
For `CC(C)(C)N1CCC(n2cc([C@@H](Nc3cc(Cl)c4ncc(C#N)c(NCc5ccccc5F)c4c3)c3ccccc3)nn2)CC1` [Example 618, (S)-6-(((1-(1-(tert-butyl)piperidin-4-yl)-1H-1,2,3-triazol-4-yl)(phenyl)methyl)amino)-8-chloro-4-((2-fluorobenzyl)amino)quinoline-3-carbonitrile] the same measures were 53 nM and 1700 nM.
For `C[C@@H](Nc1c(C#N)cnc2c(Cl)cc(N[C@@H](c3ccccc3)c3cn(C4CCN(C(C)(C)C)CC4)nn3)cc12)c1ccccc1F` [Example 619, 6-(((S)-(1-(1-(tert-butyl)piperidin-4-yl)-1H-1,2,3-triazol-4-yl)(phenyl)methyl)amino)-8-chloro-4-(((R)-1-(2-fluorophenyl)ethyl)amino) quinoline-3-carbonitrile] the same measures were 16 nM and 826 nM.
With `CNc1cccc([C@H](Nc2cc(Cl)c3ncc(C#N)c(Nc4ccc(F)c(Cl)c4)c3c2)c2cn(C3CCN(C(C)(C)C)CC3)nn2)c1` [Example 620, (S)-6-(((1-(1-(tert-butyl)piperidin-4-yl)-1H-1,2,3-triazol-4-yl)(3-(methylamino)phenyl)methyl)amino)-8-chloro-4-((3-chloro-4-fluorophenyl)amino)quinoline-3-carbonitrile], the IC50 in experiment [1] turned out to be 6 nM. In experiment [2], the EC50 is 96 nM.
For `COC1CN(C(=O)c2cccc([C@H](Nc3cc(Cl)c4ncc(C#N)c(Nc5ccc(F)c(Cl)c5)c4c3)c3cn(C4CCN(C(C)(C)C)CC4)nn3)c2)C1` [Example 621, (S)-6-(((1-(1-(tert-butyl)piperidin-4-yl)-1H-1,2,3-triazol-4-yl)(3-(3-methoxyazetidine-1-carbonyl)phenyl)methyl)amino)-8-chloro-4-((3-chloro-4-fluorophenyl)amino)quinoline-3-carbonitrile] the same measures were 2 nM and 112 nM.
`CN(C)C1CN(C(=O)c2cccc([C@H](Nc3cc(Cl)c4ncc(C#N)c(Nc5ccc(F)c(Cl)c5)c4c3)c3cn(C4CCN(C(C)(C)C)CC4)nn3)c2)C1` [Example 622, (S)-6-(((1-(1-(tert-butyl)piperidin-4-yl)-1H-1,2,3-triazol-4-yl)(3-(3-(dimethylamino)azetidine-1-carbonyl)phenyl)methyl)amino)-8-chloro-4-((3-chloro-4-fluorophenyl)amino)quinoline-3-carbonitrile]: in experiment [1], the IC50 worked out at 5 nM. Further, in experiment [2], the EC50 was found to be 851 nM.
